Assays:
PPARγ·MED1 = PPARγ·MED1 (Homo sapiens, UniProt P37231); test: 2D-ITC of ligand to PPARγ in the presence of MED1 in cell and syringe; type: binding; details: for cooperativity value α: ITC, PPARγ·ligand·MED1 complex; for −TΔΔS: cooperative effect of MED1 on ligand binding
PPARγ–LBD = target: T1, PPARγ–LBD (Homo sapiens, UniProt P37231); test: 2D fluorescence anisotropy; type: binding; details: ligand excess vs no ligand
T1 sequence (P37231 238-503 limits assumed): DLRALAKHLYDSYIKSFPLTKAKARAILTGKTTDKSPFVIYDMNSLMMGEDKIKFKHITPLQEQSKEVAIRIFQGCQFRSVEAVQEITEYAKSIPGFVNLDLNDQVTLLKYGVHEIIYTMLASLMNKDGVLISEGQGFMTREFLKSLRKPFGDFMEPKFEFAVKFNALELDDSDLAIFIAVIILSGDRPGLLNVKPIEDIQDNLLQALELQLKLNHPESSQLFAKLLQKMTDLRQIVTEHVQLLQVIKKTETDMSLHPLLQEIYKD

Structure (SMILES)	cooperativity value α (PPARγ·MED1)	−TΔΔS (PPARγ·MED1) [kcal/mol]	ΔH (PPARγ·MED1; ligand binding to PPARγ in the presence of MED1) [kcal/mol]	EC50 shift (fold enhancement of PPARγ/MED1 EC50) (PPARγ–LBD)
CCO[C@@H](Cc1ccc(OCCc2ccc(OS(C)(=O)=O)cc2)cc1)C(=O)O [Tesaglitazar]	18	-3.5	21.0	24 fold
CC[C@@H](Oc1cccc(CN(CCCOc2ccc(OC)cc2)c2nc3ccccc3o2)c1)C(=O)O [Pemafibrate]				smaller EC50 shift
CCCc1nc2c(C)cc(-c3nc4ccccc4n3C)cc2n1Cc1ccc(-c2ccccc2C(=O)O)cc1 [Telmisartan]				smaller EC50 shift
CN(CCOc1ccc(CC2SC(=O)NC2=O)cc1)c1ccccn1 (centres unmarked) [Rosiglitazone]	28	-2.3		

From paper PMC8890100 (Chemical Science, 2022)
